Experimental data taken from ChEMBL document CHEMBL5500393, “Discovery and Optimization of Novel SaFabI Inhibitors as Specific Therapeutic Agents for MRSA Infection” (J Med Chem, 2024).
≈ marks a conversion by molar mass, not a printed value.

Legend:
[1] = molecular target: T1, Enoyl-[acyl-carrier-protein] reductase [NADPH] FabI (Staphylococcus aureus) (UniProt Q6GI75); experiment: Inhibition of N-terminal his 6 tagged Staphylococcus aureus Fabi (1 to […] residues) expressed in Escherichia coli BL21 at 10 uM incubated for 30 mins in presence of NADPH by fluorescence based microplate reader analysis relative to control
T1 sequence (whole entry): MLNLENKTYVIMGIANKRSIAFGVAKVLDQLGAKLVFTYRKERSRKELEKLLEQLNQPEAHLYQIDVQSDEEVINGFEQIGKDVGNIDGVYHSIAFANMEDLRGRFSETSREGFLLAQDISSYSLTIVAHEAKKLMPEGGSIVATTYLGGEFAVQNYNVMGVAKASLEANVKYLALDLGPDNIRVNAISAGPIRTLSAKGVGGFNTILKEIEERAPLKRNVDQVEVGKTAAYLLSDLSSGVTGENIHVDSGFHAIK

[2] = molecular target: T1, Enoyl-[acyl-carrier-protein] reductase [NADPH] FabI (Staphylococcus aureus); experiment: Inhibition of N-terminal his 6 tagged Staphylococcus aureus Fabi (1 to […] residues) expressed in Escherichia coli BL21 at 1 uM incubated for 30 mins in presence of NADPH by fluorescence based microplate reader analysis relative to control
[3] = tested on: Staphylococcus aureus; experiment: Antimicrobial activity against […] Staphylococcus aureus ATCC33591 measured after 24 hrs by CLSI protocol based microdilution method; assay type: functional
[4] = tested on: Staphylococcus aureus; experiment: Antimicrobial activity against […] Staphylococcus aureus ATCC43300 measured after 24 hrs by CLSI protocol based microdilution method; assay type: functional
[5] = tested on: Staphylococcus aureus; experiment: Antimicrobial activity against […] Staphylococcus aureus USA300 measured after 24 hrs by CLSI protocol based microdilution method; assay type: functional
[6] = tested on: Staphylococcus aureus; experiment: Antimicrobial activity against […] Staphylococcus aureus NRS271 measured after 24 hrs by CLSI protocol based microdilution method; assay type: functional
[7] = tested on: Staphylococcus aureus; experiment: Antimicrobial activity against methicillin-susceptible Staphylococcus aureus ATCC29213 measured after 24 hrs by CLSI protocol based microdilution method; assay type: functional
[8] = tested on: Staphylococcus aureus; experiment: Antimicrobial activity against methicillin-susceptible Staphylococcus aureus ATCC25923 measured after 24 hrs by CLSI protocol based microdilution method; assay type: functional
[9] = tested on: Enterococcus faecium; experiment: Antimicrobial activity against Enterococcus faecium ATCC19434 measured after 24 hrs by CLSI protocol based microdilution method; assay type: functional
[10] = tested on: Enterococcus faecalis; experiment: Antimicrobial activity against Enterococcus faecalis ATCC29212 measured after 24 hrs by CLSI protocol based microdilution method; assay type: functional
[11] = tested on: Pseudomonas aeruginosa; experiment: Antimicrobial activity against Pseudomonas aeruginosa PAO1 measured after 24 hrs by CLSI protocol based microdilution method; assay type: functional
[12] = tested on: Escherichia coli; experiment: Antimicrobial activity against Escherichia coli ATCC25922 measured after 24 hrs by CLSI protocol based microdilution method; assay type: functional
[13] = tested on: Acinetobacter baumannii; experiment: Antimicrobial activity against Acinetobacter baumannii ATCC19606 measured after 24 hrs by CLSI protocol based microdilution method; assay type: functional
[14] = tested on: Candida albicans; experiment: Antimicrobial activity against Candida albicans SC5314 measured after 48 hrs by CLSI protocol based microdilution method; assay type: functional

| SMILES | inhibition [1] [%] | inhibition [2] [%] | MIC [3] [µg/mL] | MIC [4] [µg/mL] | MIC [5] [µg/mL] | MIC [6] [µg/mL] | MIC [7] [µg/mL] | MIC [8] [µg/mL] | MIC [9] [µg/mL] | MIC [10] [µg/mL] | MIC [11] [µg/mL] | MIC [12] [µg/mL] | MIC [13] [µg/mL] | MIC [14] [µg/mL] |
| --- | --- | --- | --- | --- | --- | --- | --- | --- | --- | --- | --- | --- | --- | --- |
| Cc1cccc(C(=O)NCCNC(=O)c2nc3ccccc3n2C)c1C | 3.7 | 1.7 | > 32 | > 32 | > 32 | > 32 | > 32 | > 32 | > 32 | > 32 | > 32 | > 32 | > 32 | > 32 |
| Cc1cccc(NC(=O)CCNC(=O)c2nc3ccccc3n2C)c1C | 6.6 | 4.8 | > 32 | > 32 | > 32 | > 32 | > 32 | > 32 | > 32 | > 32 | > 32 | > 32 | > 32 | > 32 |
| Cn1c(C2CC(=O)N(CCc3ccccc3)C2)nc2ccccc21 (stereo not given) | 3.9 | 5.8 | > 32 | > 32 | > 32 | > 32 | > 32 | > 32 | > 32 | > 32 | > 32 | > 32 | > 32 | > 32 |
| Cn1c(CCC(=O)NCc2ccccc2)nc2ccccc21 | 6.1 | 7.9 | > 32 | > 32 | > 32 | > 32 | > 32 | > 32 | > 32 | > 32 | > 32 | > 32 | > 32 | > 32 |
| CC(=O)c1ccc(N2CC(c3nc4ccccc4n3C)CC2=O)cc1 (stereo not given) | 10.1 | 2.8 | > 32 | > 32 | > 32 | > 32 | > 32 | > 32 | > 32 | > 32 | > 32 | > 32 | > 32 | > 32 |
| Cn1c(C2CC(=O)N(c3noc4ccccc34)C2)nc2ccccc21 (stereo not given) | 11.6 | 2.5 | > 32 | > 32 | > 32 | > 32 | > 32 | > 32 | > 32 | > 32 | > 32 | > 32 | > 32 | > 32 |
| CC(=O)c1ccc(N2CC(c3nc4ccccc4n3C)CC2=O)cc1Cl (stereo not given) | 3.8 | 5.5 | > 32 | > 32 | > 32 | > 32 | > 32 | > 32 | > 32 | > 32 | > 32 | > 32 | > 32 | > 32 |
| Cn1c(C2CC(=O)N(Cc3ccccc3)C2)nc2ccccc21 (stereo not given) | 27.9 | 4.6 | > 32 | > 32 | > 32 | > 32 | > 32 | > 32 | > 32 | > 32 | > 32 | > 32 | > 32 | > 32 |
| COc1cccc(OC)c1C(=O)N[C@@H]1C(=O)N2[C@@H]1SC(C)(C)[C@@H]2C(=O)O [METHICILLIN] |  |  | > 32 | > 32 | > 32 | > 32 | 2 (≈ 5.26 µM) | 2 (≈ 5.26 µM) |  |  |  |  |  |  |
| O=C1CC(c2nc3ccccc3[nH]2)CN1c1cccc(Cl)c1F (stereo not given) | 16.9 | 1.7 | > 32 | > 32 | > 32 | > 32 | > 32 |  | > 32 | > 32 | > 32 | > 32 | > 32 | > 32 |
| O=C(N/N=C/c1cc(O)c(O)cc1O)c1cc2ccccc2cc1O | > 70 |  |  |  |  |  |  |  |  |  |  |  |  |  |
| CN(C)c1ccc2nc3c(C(=O)O)cc(O)c(O)c3[o+]c2c1 | > 70 |  |  |  |  |  |  |  |  |  |  |  |  |  |
| COCCCOc1ccc(C)c(C[S+]([O-])c2nc3ccccc3[nH]2)n1 (stereo not given) | > 70 |  |  |  |  |  |  |  |  |  |  |  |  |  |
| CCCCCC/C=C/CCCCCCCc1cccc(O)c1C(=O)O | > 70 |  |  |  |  |  |  |  |  |  |  |  |  |  |
